Converted amounts (≈) assume the structure as drawn. Counter-ions that a name gives are not always drawn. Like-named read-outs stand apart in the source and are kept apart here.
How the values were obtained:
[1] = system: chloroquine-resistant K1 strain of P. falciparum; assay: In vitro antimalarial semiautomated microdilution assay ([3H]-hypoxanthine incorporation), K1 strain; type: cell-based, Plasmodium falciparum; conditions: Plasmodium falciparum
Outline: (§1)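 Asynchronous stock-culture parasites (intraerythrocytic forms), serial compound dilutions; readout [3H]-hypoxanthine uptake; IC50 via Logit regression.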

[2] = system: ANKA strain of P. berghei; assay: Single dose STI in vivo screen in infected mice; design: species or system Plasmodium berghei; conditions: for Survival (days) 10 mg/kg po: single 10 mg/kg po in 3% ethanol and 7% Tween 80; for Survival (days) 10 mg/kg po / Survival (days) 10 mg/kg SSV po / Survival (days) 10 mg/kg sc: untreated 6-7 days; for Survival (days) 10 mg/kg SSV po: single 10 mg/kg po in SSV; for Survival (days) 10 mg/kg sc: single 10 mg/kg sc in 3% ethanol and 7% Tween 80
[3] = system: chloroquine-sensitive NF54 strain of P. falciparum; assay: In vitro antimalarial semiautomated microdilution assay ([3H]-hypoxanthine incorporation), NF54 strain; type: cell-based, Plasmodium falciparum; conditions: Plasmodium falciparum
Outline: as §1

[4] = K1, 72 h, read-out: IC50 (ng/ml) K1, chloroquine-resistant K1 strain, 72 h incubation
[5] = single 10 mg/kg po in 3% ethanol and 7% Tween 80 on day 1 post-infection, percent reduction in parasitemia on day 3
[6] = single 10 mg/kg po in standard suspending vehicle (SSV) on day 1 post-infection, percent reduction in parasitemia on day 3
[7] = single 10 mg/kg sc in 3% ethanol and 7% Tween 80 on day 1 post-infection, percent reduction in parasitemia on day 3
[8] = NF54, 72 h, read-out: IC50 (ng/ml) NF54, chloroquine-sensitive NF54 strain, 72 h incubation
[9] = chloroquine-resistant K1 strain, 72 h incubation, read-out: IC50 (ng/ml) K1
[10] = chloroquine-sensitive NF54 strain, 72 h incubation, read-out: IC50 (ng/ml) NF54

SMILES | IC50 [1, 4] | Survival (days) 10 mg/kg po [2] | Activity (%) 10 mg/kg po [2, 5] | Survival (days) 10 mg/kg SSV po [2] | Activity (%) 10 mg/kg SSV po [2, 6] | Survival (days) 10 mg/kg sc [2] | Activity (%) 10 mg/kg sc [2, 7] | IC50 [3, 8] | IC50 [1, 9] | IC50 [3, 10] | Activity (%) 10 mg/kg SSV po ([2]; po, 10 mg/kg) | Activity (%) 10 mg/kg po ([2]; po, 10 mg/kg) | Activity (%) 10 mg/kg sc ([2]; sc, 10 mg/kg)
O=C(NO)c1ccc([C@H]2CC[C@]3(CC2)OOC2(O3)C3CC4CC(C3)CC2C4)cc1 (stereo partly shown) [OZ183] | 0.8 ng/mL (≈ 2 nM) | 6.0 days | 65% | 6.0 days | 19% | 8.3 days | 81% | 2.1 ng/mL (≈ 5.26 nM) | – | – | – | – | –
C1CC1CNC1CCC2(CC1)OOC1(O2)C2CC3CC(C2)CC1C3 (stereo not shown) [OZ184] | 1 ng/mL (≈ 3 nM) | 6.7 days | 54% | 7.0 days | 59% | 8.7 days | 97% | 1.4 ng/mL (≈ 4.2 nM) | – | – | – | – | –
C1C2CC3CC1CC(C2)C31OOC2(CCC(NC3CC3)CC2)O1 (stereo not shown) [OZ185] | 1.1 ng/mL (≈ 3.44 nM) | 7.7 days | 86% | 6.7 days | 56% | 10.7 days | 99.96% | 1.4 ng/mL (≈ 4.38 nM) | – | – | – | – | –
COCC(=O)N[C@H]1CC[C@]2(CC1)OOC1(O2)C2CC3CC(C2)CC1C3 (stereo partly shown) [OZ186] | > 10 ng/mL | 8.0 days | 87% | 9.0 days | 96% | 8.0 days | 67% | > 10 ng/mL | – | – | – | – | –
CN(C)C(=O)N[C@H]1CC[C@]2(CC1)OOC1(O2)C2CC3CC(C2)CC1C3 (stereo partly shown) [OZ187] | 4 ng/mL (≈ 11.4 nM) | 7.7 days | 77% | 10.0 days | 94% | 7.0 days | 77% | 6.8 ng/mL (≈ 19.4 nM) | – | – | – | – | –
CN(C)S(=O)(=O)N1CCC2(CC1)OOC1(O2)C2CC3CC(C2)CC1C3 (stereo not shown) [OZ190, Adamantane-2-spiro-3′-8′-(dimethylaminosulfonyl)-1′,2′,4′-trioxa-8′-azaspiro[4.5]decane] | 0.16 ng/mL (≈ 0.43 nM) | 8.7 days | 98% | 7.7 days | 78% | 5.7 days | 2% | 1 ng/mL (≈ 2.68 nM) | – | – | – | – | –
N=C(N)N1CCC2(CC1)OOC1(O2)C2CC3CC(C2)CC1C3 (stereo not shown) [OZ191, Adamantane-2-spiro-3′-8′-amidino-1′,2′,4′-trioxa-8′-azaspiro[4.5]decane hydrochloride] | 6 ng/mL | 5.7 days | 7% | 5.7 days | 5% | 6.0 days | 17% | > 10 ng/mL | – | – | – | – | –
Fc1ccc(OC2CCC3(CC2)OOC2(O3)C3CC4CC(C3)CC2C4)cc1 (stereo not shown) [OZ193] | 5.5 ng/mL (≈ 14.7 nM) | 9.3 days | 99.75% | 8.0 days | 93% | 11.0 days | 99.92% | 8.3 ng/mL (≈ 22.2 nM) | – | – | – | – | –
O=C(O)CCC(=O)N[C@H]1CC[C@]2(CC1)OOC1(O2)C2CC3CC(C2)CC1C3 (stereo partly shown) [OZ196] | > 10 ng/mL | 6.0 days | 10% | 5.3 days | 0% | 5.7 days | 17% | > 10 ng/mL | – | – | – | – | –
O=C(O)c1cccc([C@H]2CC[C@]3(CC2)OOC2(O3)C3CC4CC(C3)CC2C4)c1 (stereo partly shown) [OZ198] | > 10 ng/mL | 5.7 days | 4% | 6.0 days | 6% | 5.7 days | 6% | > 10 ng/mL | – | – | – | – | –
CCS(=O)(=O)CCN1CCC2(CC1)OOC1(O2)C2CC3CC(C2)CC1C3 (stereo not shown) [OZ200, Adamantane-2-spiro-3′-8′-[2′-(ethylsulfonyl)ethyl]-1′,2′,4′-trioxa-8′-azaspiro[4.5]decane] | 1 ng/mL (≈ 2.59 nM) | 7.0 days | 81% | 7.3 days | 78% | 8.0 days | 92% | 2.9 ng/mL (≈ 7.52 nM) | – | – | – | – | –
Fc1ccc(NC2CCC3(CC2)OOC2(O3)C3CC4CC(C3)CC2C4)cc1 (stereo not shown) [OZ201] | 2 ng/mL (≈ 5.36 nM) | 13 days | 100/100/100% | 10.3 days | 100/100/100% | 25 days | 100/100/100% | 3.1 ng/mL (≈ 8.3 nM) | – | – | – | – | –
CC(=O)OC(C)(C)C(=O)N[C@H]1CC[C@]2(CC1)OOC1(O2)C2CC3CC(C2)CC1C3 (stereo partly shown) [OZ202] | 6 ng/mL (≈ 14.7 nM) | 7.0 days | 79% | 7.3 days | 51% | 7.3 days | 74% | 7.9 ng/mL (≈ 19.4 nM) | – | – | – | – | –
O=C(N1CCCC1)N1CCC2(CC1)OOC1(O2)C2CC3CC(C2)CC1C3 (stereo not shown) [OZ203, Adamantane-2-spiro-3′-8′-(1′-pyrrolidinylcarbonyl)-1′,2′,4′-trioxa-8′-azaspiro[4.5]decane] | 3.9 ng/mL (≈ 10.8 nM) | 7.3 days | 87% | 8.7 days | 99.42% | 9.7 days | 99.72% | 6.7 ng/mL (≈ 18.5 nM) | – | – | – | – | –
COC(=O)c1ccc(C[C@H]2CC[C@]3(CC2)OOC2(O3)C3CC4CC(C3)CC2C4)cc1 (stereo partly shown) [OZ204] | > 10 ng/mL | 6.0 days | 0/0/0% | 6.3 days | 0/0/0% | 6.0 days | 0/0/0% | > 10 ng/mL | – | – | – | – | –
O=C1CNC(=O)N1C[C@H]1CC[C@]2(CC1)OOC1(O2)C2CC3CC(C2)CC1C3 (stereo partly shown) [OZ206] | 1 ng/mL (≈ 2.66 nM) | 8.0 days | 93% | 8.7 days | 92% | 9.7 days | 91% | 2.7 ng/mL (≈ 7.17 nM) | – | – | – | – | –
CCOC(=O)c1cccc([C@H]2CC[C@]3(CC2)OOC2(O3)C3CC4CC(C3)CC2C4)c1 (stereo partly shown) [OZ208] | – | 6.3 days | 0% | 6.7 days | 29% | 5.7 days | 10% | – | 6 ng/mL (≈ 14.5 nM) | 6.5 ng/mL (≈ 15.8 nM) | – | – | –
O=S(=O)(C[C@H]1CC[C@]2(CC1)OOC1(O2)C2CC3CC(C2)CC1C3)c1ccccc1 (stereo partly shown) [OZ210] | – | 9.3 days | 99.23% | 8.0 days | 77% | 10.3 days | 99.94% | – | 1.4 ng/mL (≈ 3.34 nM) | 1.6 ng/mL (≈ 3.82 nM) | – | – | –
c1cnn(C[C@H]2CC[C@]3(CC2)OOC2(O3)C3CC4CC(C3)CC2C4)c1 (stereo partly shown) [OZ211] | – | 8.0 days | 82% | 7.3 days | 78% | 8.7 days | 99.90% | – | 1 ng/mL (≈ 2.9 nM) | 1.2 ng/mL (≈ 3.48 nM) | – | – | –
O=C1c2ccccc2S(=O)(=O)N1C[C@H]1CC[C@]2(CC1)OOC1(O2)C2CC3CC(C2)CC1C3 (stereo partly shown) [OZ212] | – | 6.7 days | 66% | 6.7 days | 25% | 8.0 days | 59% | – | 2.7 ng/mL (≈ 5.88 nM) | 2.9 ng/mL (≈ 6.31 nM) | – | – | –
CONC(=O)C[C@H]1CC[C@]2(CC1)OOC1(O2)C2CC3CC(C2)CC1C3 (stereo partly shown) [OZ213] | – | 8.0/8.0/8.0 days | 83% | 8.0/8.0/8.0 days | 74% | 8.0/8.0/8.0 days | 85% | – | 2.3 ng/mL (≈ 6.54 nM) | 2.8 ng/mL (≈ 7.97 nM) | – | – | –
O=C(O)c1ccc(C[C@H]2CC[C@]3(CC2)OOC2(O3)C3CC4CC(C3)CC2C4)cc1 (stereo partly shown) [OZ214] | – | 6.3 days | 44% | 7.3 days | 54% | 7.7 days | 65% | – | > 10 ng/mL | > 10 ng/mL | – | – | –
O=C1c2ccccc2C(=O)N1CC[C@H]1CC[C@]2(CC1)OOC1(O2)C2CC3CC(C2)CC1C3 (stereo partly shown) [OZ215] | – | 9.7 days | – | 6.3 days | – | 7.0 days | – | – | 6.4 ng/mL (≈ 14.6 nM) | 7.3 ng/mL (≈ 16.7 nM) | 25% | 96% | 39%

Reference: patent publication US6825230B2, “Spiro and dispiro 1,2,4-trixolane antimalarials” (Medicines for Malaria Venture MMV, priority 2002, dated 2004)
